Here are results for 7 compounds from ChEMBL document CHEMBL5338767, “A Molecular Toolbox of Positron Emission Tomography Tracers for General Anesthesia Mechanism Research” (J Med Chem, 2023).

The target of data set [1] is T1, Alpha-2C adrenergic receptor (Homo sapiens, UniProt P18825).
T1 sequence (P18825 whole entry): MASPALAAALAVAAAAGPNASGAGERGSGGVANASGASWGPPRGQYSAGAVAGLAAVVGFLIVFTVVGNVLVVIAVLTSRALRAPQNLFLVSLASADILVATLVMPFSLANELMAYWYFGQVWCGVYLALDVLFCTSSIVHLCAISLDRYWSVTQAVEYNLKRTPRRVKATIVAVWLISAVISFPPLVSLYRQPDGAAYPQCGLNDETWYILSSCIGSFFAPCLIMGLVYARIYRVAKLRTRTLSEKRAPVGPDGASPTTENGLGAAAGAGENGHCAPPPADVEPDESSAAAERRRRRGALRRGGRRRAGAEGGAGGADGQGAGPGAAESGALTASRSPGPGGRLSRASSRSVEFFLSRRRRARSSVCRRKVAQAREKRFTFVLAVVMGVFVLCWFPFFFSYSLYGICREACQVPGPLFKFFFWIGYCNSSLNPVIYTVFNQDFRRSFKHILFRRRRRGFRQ
The experiment in a line: Binding affinity to alpha2C receptor (unknown origin).

For data set [2], the target named is T2, Alpha-2A adrenergic receptor (Homo sapiens, UniProt P08913).
T2 sequence (P08913 whole entry): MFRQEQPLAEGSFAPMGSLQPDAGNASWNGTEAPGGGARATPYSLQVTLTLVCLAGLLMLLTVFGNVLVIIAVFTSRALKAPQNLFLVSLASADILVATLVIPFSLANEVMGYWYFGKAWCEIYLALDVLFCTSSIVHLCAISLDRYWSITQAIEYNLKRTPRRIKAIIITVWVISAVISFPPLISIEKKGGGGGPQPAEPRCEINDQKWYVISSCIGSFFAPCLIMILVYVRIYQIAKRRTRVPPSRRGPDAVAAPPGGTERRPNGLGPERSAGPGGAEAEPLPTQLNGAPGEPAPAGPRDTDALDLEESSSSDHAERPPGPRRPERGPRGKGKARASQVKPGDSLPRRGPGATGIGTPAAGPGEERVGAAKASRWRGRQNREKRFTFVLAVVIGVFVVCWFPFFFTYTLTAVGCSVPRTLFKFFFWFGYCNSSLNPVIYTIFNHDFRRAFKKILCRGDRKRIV
The data set is described as follows: Binding affinity to alpha2A receptor (unknown origin).

Data set [3] in a line: Dissociation constant, pKa of the compound. The format is physicochemical.
Data set [4] can be described thus: Lipophilicity, logD of compound at pH 7. The following applies: buffer.
The nature of data set [5]: Lipophilicity, logP of the compound. The following applies: octanol/water.
Data set [6] concerns the target T3, Alpha-2B adrenergic receptor (Homo sapiens, UniProt P18089).
T3 sequence (P18089 whole entry): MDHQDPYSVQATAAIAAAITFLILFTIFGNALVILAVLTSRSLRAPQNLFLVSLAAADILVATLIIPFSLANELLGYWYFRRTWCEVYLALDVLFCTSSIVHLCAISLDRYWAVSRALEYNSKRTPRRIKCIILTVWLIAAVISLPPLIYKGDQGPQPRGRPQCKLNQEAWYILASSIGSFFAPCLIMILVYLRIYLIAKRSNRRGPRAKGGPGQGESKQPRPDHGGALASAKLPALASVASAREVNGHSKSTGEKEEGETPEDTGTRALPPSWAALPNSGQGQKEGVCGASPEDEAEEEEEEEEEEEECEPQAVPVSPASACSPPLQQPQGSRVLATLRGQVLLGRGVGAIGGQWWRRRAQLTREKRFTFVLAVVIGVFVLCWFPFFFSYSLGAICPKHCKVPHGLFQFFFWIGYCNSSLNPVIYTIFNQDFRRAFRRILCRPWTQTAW
The data set is described as follows: Binding affinity to alpha2B receptor (unknown origin).

Data set [7] is described as follows: Stability in human plasma incubated upto 60 mins. It counts as ADME, cell-free. The following applies: read-out: Stability.
Data set [8] concerns the target Neuronal acetylcholine receptor subunit alpha-7 (Rattus norvegicus, UniProt Q05941). The data set is described as follows: Binding affinity to rat nACh alpha7 receptor assessed as inhibition constant.
The target of data set [9] is Neuronal acetylcholine receptor subunit alpha-7 (Homo sapiens, UniProt P36544). The experiment in a line: Binding affinity to human nACh alpha7 receptor assessed as inhibition constant.
Chain of Neuronal acetylcholine receptor subunit alpha-7 (Homo sapiens, UniProt P36544) (P36544 whole entry): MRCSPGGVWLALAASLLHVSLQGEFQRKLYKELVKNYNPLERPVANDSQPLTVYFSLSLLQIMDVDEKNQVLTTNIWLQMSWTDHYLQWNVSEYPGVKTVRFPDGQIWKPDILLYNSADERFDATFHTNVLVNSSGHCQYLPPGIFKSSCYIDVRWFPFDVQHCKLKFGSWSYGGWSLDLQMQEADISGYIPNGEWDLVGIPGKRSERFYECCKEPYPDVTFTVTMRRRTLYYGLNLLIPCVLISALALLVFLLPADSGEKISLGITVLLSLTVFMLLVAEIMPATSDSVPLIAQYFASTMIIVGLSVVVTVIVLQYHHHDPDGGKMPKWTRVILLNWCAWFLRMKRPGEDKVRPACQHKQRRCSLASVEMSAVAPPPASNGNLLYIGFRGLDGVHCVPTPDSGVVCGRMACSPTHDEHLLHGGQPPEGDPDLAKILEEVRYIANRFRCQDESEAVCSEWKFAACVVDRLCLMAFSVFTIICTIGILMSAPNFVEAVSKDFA
The target in data set [10] is Neuronal acetylcholine receptor; alpha4/beta2 (Homo sapiens, UniProt P17787+P43681). The experiment in a line: Binding affinity to nACh alpha4beta2 receptor (unknown origin) assessed as inhibition constant. It counts as protein-complex assay.
Chain of Neuronal acetylcholine receptor; alpha4/beta2 (P17787 whole entry): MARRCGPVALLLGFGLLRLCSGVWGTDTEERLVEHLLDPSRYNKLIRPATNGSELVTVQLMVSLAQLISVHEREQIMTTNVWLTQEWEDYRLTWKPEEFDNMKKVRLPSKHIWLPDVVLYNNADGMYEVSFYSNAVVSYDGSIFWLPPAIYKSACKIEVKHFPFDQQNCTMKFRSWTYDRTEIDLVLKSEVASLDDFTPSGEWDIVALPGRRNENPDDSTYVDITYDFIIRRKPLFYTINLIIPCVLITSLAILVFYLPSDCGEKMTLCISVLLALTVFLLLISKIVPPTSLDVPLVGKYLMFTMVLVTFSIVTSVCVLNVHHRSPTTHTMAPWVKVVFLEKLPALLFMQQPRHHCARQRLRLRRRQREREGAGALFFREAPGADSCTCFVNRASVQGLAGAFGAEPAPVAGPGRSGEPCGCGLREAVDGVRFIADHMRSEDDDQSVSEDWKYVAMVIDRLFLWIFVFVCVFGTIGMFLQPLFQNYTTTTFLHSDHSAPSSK
Chain of Neuronal acetylcholine receptor; alpha4/beta2 (P43681 whole entry): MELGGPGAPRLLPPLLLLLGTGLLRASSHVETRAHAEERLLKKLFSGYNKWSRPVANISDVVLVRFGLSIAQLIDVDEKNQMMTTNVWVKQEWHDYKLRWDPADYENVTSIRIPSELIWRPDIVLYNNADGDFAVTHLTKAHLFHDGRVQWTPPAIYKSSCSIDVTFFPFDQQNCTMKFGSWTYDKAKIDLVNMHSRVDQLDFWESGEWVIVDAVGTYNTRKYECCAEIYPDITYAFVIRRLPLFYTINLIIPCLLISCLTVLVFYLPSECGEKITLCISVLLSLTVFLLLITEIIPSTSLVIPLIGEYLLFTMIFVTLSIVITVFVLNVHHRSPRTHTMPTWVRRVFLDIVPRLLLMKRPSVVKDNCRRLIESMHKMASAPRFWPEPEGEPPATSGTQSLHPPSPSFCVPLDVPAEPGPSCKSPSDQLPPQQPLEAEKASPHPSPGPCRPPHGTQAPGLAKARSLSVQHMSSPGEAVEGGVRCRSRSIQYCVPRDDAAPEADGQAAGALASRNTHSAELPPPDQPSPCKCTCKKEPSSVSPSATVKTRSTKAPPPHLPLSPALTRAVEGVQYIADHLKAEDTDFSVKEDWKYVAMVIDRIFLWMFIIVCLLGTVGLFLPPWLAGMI
Data set [11] is described as follows: Drug distribution in rat brain assessed as dissociation constant. It counts as ADME, tissue-based.
Data set [12] is described as follows: Drug distribution in rat brain assessed as maximum binding. It counts as ADME, tissue-based. The note with it: in vivo.
The target in data set [13] is T4, Kappa-type opioid receptor (Homo sapiens, UniProt P41145). The experiment in a line: Binding affinity to kappa opioid receptor (unknown origin).
T4 sequence (P41145 whole entry): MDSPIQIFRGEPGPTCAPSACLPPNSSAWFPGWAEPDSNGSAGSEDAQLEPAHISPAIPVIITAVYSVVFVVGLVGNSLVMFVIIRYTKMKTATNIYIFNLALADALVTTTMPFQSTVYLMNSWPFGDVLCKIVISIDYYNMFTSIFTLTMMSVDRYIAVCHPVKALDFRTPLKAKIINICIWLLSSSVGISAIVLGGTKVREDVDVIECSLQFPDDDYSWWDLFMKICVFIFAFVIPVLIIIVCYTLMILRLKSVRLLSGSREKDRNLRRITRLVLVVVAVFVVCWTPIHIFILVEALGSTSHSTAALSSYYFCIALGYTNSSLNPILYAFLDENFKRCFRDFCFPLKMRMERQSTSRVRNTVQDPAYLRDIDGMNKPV
Data set [14] addresses Mu-type opioid receptor (Homo sapiens, UniProt P35372).
Data set [15] deals with T4, Kappa-type opioid receptor. The data set is described as follows: Binding affinity to kappa opioid receptor (unknown origin) assessed as inhibition constant.
Data set [16] in a line: Binding affinity to GABA/BZ receptor (unknown origin) assessed as inhibition constant. Set-up: species or system Homo sapiens.
Data set [17] deals with T5, Gamma-aminobutyric acid receptor subunit alpha-2 (Homo sapiens, UniProt P47869).
T5 sequence (P47869 whole entry): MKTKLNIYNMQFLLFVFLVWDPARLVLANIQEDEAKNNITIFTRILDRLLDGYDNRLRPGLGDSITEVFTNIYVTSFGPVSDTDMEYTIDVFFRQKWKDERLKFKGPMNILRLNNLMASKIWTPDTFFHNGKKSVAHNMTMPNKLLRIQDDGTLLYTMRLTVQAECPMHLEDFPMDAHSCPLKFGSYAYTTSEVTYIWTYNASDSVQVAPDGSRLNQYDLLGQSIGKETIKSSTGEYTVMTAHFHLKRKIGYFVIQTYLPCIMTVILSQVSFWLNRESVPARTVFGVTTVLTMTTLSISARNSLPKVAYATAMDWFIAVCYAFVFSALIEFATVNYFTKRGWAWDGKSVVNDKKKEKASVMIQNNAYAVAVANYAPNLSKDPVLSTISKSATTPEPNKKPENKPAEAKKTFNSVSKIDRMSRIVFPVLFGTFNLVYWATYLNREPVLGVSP
The experiment in a line: Binding affinity to GABAa alpha2 (unknown origin) assessed as inhibition constant.

In data set [18] the target is T6, Gamma-aminobutyric acid receptor subunit alpha-3 (Homo sapiens, UniProt P34903).
T6 sequence (P34903 whole entry): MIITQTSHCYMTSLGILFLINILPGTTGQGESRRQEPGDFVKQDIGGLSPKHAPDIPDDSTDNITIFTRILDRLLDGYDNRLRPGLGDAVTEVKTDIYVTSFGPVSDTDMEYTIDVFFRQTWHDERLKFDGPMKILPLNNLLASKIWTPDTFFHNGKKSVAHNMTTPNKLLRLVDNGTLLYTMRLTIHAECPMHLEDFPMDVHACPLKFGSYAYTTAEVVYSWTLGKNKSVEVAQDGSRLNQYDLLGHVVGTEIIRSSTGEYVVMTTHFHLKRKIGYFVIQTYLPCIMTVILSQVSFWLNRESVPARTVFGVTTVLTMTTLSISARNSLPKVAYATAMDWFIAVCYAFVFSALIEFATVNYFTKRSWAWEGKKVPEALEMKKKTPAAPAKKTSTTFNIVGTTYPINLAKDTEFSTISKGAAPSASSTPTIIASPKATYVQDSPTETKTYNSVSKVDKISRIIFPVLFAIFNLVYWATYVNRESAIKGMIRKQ
The data set is described as follows: Binding affinity to GABAa alpha3 (unknown origin) assessed as inhibition constant.

Data set [19] deals with T7, Gamma-aminobutyric acid receptor subunit alpha-1 (Homo sapiens, UniProt P14867).
T7 sequence (P14867 whole entry): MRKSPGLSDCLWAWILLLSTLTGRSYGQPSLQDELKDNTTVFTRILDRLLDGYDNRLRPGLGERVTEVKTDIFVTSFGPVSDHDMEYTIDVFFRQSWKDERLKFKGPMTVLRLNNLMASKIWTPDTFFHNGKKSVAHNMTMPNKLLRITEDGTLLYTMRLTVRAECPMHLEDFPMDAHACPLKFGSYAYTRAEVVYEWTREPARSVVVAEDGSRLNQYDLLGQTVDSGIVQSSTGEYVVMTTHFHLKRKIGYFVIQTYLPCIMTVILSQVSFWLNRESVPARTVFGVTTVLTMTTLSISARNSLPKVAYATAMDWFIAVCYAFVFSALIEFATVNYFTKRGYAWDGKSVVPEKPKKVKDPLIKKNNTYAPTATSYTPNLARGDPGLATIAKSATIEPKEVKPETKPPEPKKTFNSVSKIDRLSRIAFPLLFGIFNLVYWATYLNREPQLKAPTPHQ
The data set is described as follows: Binding affinity to GABAa alpha1 (unknown origin) assessed as inhibition constant.

Data set [20] can be described thus: Stability in Sprague-Dawley rat plasma assessed as parent compound remaining measured after 10 mins. The format is ADME, cell-free. The note with it: read-out: Stability.
A short description of data set [21]: Stability in Sprague-Dawley rat plasma assessed as parent compound remaining measured after 60 mins. The format is ADME, cell-free. The note with it: read-out: Stability.
Data set [22] can be described thus: Drug distribution in Sprague-Dawley rat liver at 1 mg/kg, iv measured at 10 mins in presence of ETO. The format is ADME, organism-based. The note with it: in vivo.
A short description of data set [23]: Drug distribution in Sprague-Dawley rat adrenal gland at 1 mg/kg, iv measured at 10 mins in presence of ETO. It counts as ADME, organism-based. The note with it: in vivo.
Data set [24] is described as follows: Stability in Sprague-Dawley rat plasma assessed as parent compound remaining measured after 30 mins. The format is ADME, cell-free. The following applies: read-out: Stability.

Chain of Neuronal acetylcholine receptor subunit alpha-7 (Rattus norvegicus, UniProt Q05941) (Q05941 whole entry): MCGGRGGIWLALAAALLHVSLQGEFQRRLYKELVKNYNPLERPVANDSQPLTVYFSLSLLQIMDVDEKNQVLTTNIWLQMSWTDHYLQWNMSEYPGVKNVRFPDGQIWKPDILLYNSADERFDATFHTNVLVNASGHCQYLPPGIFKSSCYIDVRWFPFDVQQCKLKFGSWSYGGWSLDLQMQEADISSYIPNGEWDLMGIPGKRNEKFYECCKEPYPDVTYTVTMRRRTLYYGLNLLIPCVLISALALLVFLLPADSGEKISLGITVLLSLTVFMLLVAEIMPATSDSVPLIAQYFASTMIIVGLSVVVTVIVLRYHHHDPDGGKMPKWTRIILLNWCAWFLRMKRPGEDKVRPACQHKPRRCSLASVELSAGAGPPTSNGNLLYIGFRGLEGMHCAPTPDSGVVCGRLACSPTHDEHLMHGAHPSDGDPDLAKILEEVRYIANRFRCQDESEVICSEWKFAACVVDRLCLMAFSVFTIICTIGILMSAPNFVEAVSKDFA
Chain of Mu-type opioid receptor (P35372 whole entry): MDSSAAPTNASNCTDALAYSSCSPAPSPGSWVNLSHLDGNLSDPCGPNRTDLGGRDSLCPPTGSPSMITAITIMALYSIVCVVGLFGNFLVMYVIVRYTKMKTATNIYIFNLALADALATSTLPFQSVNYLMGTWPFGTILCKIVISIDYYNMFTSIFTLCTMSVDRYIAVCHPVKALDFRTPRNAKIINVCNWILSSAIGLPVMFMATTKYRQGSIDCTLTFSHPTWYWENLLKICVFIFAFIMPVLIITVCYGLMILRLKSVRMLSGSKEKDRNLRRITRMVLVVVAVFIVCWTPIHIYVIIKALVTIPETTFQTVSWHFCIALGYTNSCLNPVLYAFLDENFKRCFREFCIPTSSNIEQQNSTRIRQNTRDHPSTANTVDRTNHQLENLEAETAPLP

For `[11CH3]OCc1cccnc1N1CCN(C[C@H]2COc3ccccc3O2)CC1` [ORM-13070 C-11], the values for the Kd in data set [1], in [2] and in data set [6] were 3.8 nM, 109 nM and 23 nM, respectively. This compound came in with a pKa in [3] of 7.23. The compound further gave a logD in data set [4] of 1.94. The same compound registered a log partition coefficient (logP) in data set [5] of 2.51.

Regarding `[11CH3]c1ccc(OC(=O)N2CCN3CCC2CC3)cc1`, in [7], the remaining at 1 h was more than 80%. In addition, the Ki worked out at 22 nM in [8] and 14 nM in [9]. Moreover, the pKa in data set [3] was determined as 8.19. This compound yielded a logD in [4] of 1.89. Further, the logP in data set [5] came to 1.95.

For the compound `[18F]c1ccc(-c2nnc(N3CCN4CCC3CC4)o2)cc1`, the Ki in data set [10] was more than 10000 nM. The compound further yielded a pKa in data set [3] of 8.44. In addition, in [4], the log distribution coefficient (logD) is -0.82. Also, the logP in data set [5] turned out to be 2.34.

Regarding `[18F]c1ccc(OC[C@H]2CCN2)cn1`, in data set [11], the Kd is 0.028 nM. Besides, the Bmax in data set [12] was determined as 3.7 pmol/g. Moreover, in data set [3], the pKa turned out to be 9.01. Further, the logD in data set [4] was -2.02. The same compound had a logP in data set [5] of 0.66.

`N[11C](=O)c1ccc(Oc2ccc(CN3CCC[C@H]3c3cccnc3)cc2)c(Cl)c1` returned a dissociation constant Kd in [13] of 0.028 nM. The Ki in data set [14] stood at 25.8 nM; in data set [15], 0.72 nM. In data set [3], this compound had a pKa of 8.45. The same compound showed a logD in [4] of 2.71. Further, in [5], the log partition coefficient (logP) is 3.67.

With `CCOC(=O)c1ncn2c1CN(C)C(=O)c1cc(N=[N+]=[N-])ccc1-2` [Ro-154513], the inhibition constant Ki amounted to 0.7 nM in [16], 7 nM in data set [17], 7 nM in data set [18] and 7 nM in [19].

For `COC(=O)c1cncn1[C@H](C)c1ccc([18F])cc1`, the remaining at 10 min in [20] is 13%. Besides, in data set [21], the remaining at 1 h amounted to 2%. Besides, the Drug uptake stood at 66% in data set [22] and 39% in [23]. For the same compound, the pKa in data set [3] amounted to 4.08. The pH-dependent lipophilicity (logD) in data set [4] was determined as 2.82. Besides, the remaining at 0.5 h in data set [24] worked out at 8%. Further, in [5], the logP is reported as 1.65.

As a reminder, the Kd is a measure of binding affinity in units of concentration. What is called pKa is the negative logarithm of the acid dissociation constant. A higher pKa goes with a weaker acid or stronger base. In general, logD refers to the decadic logarithm of the distribution of all forms, ionised or not, between an organic phase and buffer at a given pH. A high value points to higher lipophilicity. As usually defined, the logP is the decadic logarithm of the partition coefficient of the neutral form, usually between octanol and water. As a reminder, the Ki is a dissociation constant, usually derived from enzyme kinetics or from competition with a known ligand.
